ChEMBL document CHEMBL5113503, “Synthesis and biological evaluation of 4-(4-aminophenyl)-6-methylisoxazolo[3,4-b] pyridin-3-amine covalent inhibitors as potential agents for the treatment of acute myeloid leukemia” (Bioorg Med Chem, 2022)

Legend:
[1] = test system: MOLM-13; test: Antiproliferative activity against human MOLM-13 cells harboring FLT3-ITD mutant assessed as cell growth inhibition measured after 72 hrs by CCK8 assay; conditions: MOLM-13, 72 h
[2] = test system: MV4-11; test: Antiproliferative activity against human MV4-11 cells harboring FLT3-ITD mutant assessed as cell growth inhibition measured after 72 hrs by CCK8 assay; conditions: MV4-11, 72 h
[3] = test system: HL-60; test: Antiproliferative activity against human HL-60 cells harboring wildtype FLT3 assessed as cell growth inhibition measured after 72 hrs by CCK8 assay; conditions: HL-60, 72 h
[4] = test system: HepG2; test: Antiproliferative activity human HepG2 cells assessed as cell growth inhibition measured after 72 hrs by CCK8 assay; conditions: HepG2, 72 h
[5] = test system: A549; test: Antiproliferative activity human A549 cells assessed as cell growth inhibition measured after 72 hrs by CCK8 assay; conditions: A549, 72 h
[6] = Cytotoxicity against HUVEC cells assessed as cell growth inhibition measured after 72 hrs by CCK8 assay; assay type: toxicity, cell-based; conditions: human
[7] = Cytotoxicity against human K562 cells assessed as cell growth inhibition measured after 72 hrs by CCK8 assay; assay type: toxicity, cell-based
[8] = test system: MV4-11; test: Induction of apoptosis in human MV4-11 cells assessed as viable cells at 0.1 uM measured after 48 hrs by Annexin V-FITC/PI double staining based flow cytometric analysis (reference value: 80.26 %); assay type: functional; conditions: read-out: Activity
[9] = test system: MV4-11; test: Induction of apoptosis in human MV4-11 cells assessed as early apoptotic cells at 0.1 uM measured after 48 hrs by Annexin V-FITC/PI double staining based flow cytometric analysis (reference value: 2.04 %); assay type: functional
[10] = test system: MV4-11; test: Induction of apoptosis in human MV4-11 cells assessed as late apoptotic cells at 0.1 uM measured after 48 hrs by Annexin V-FITC/PI double staining based flow cytometric analysis (reference value: 12.03 %); assay type: functional
[11] = test system: MV4-11; test: Induction of apoptosis in human MV4-11 cells assessed as necrotic cells at 0.1 uM measured after 48 hrs by Annexin V-FITC/PI double staining based flow cytometric analysis (reference value: 5.67 %); assay type: functional

Row | IC50 [1] | IC50 [2] | IC50 [3] | IC50 [4] | IC50 [5] | Structure (SMILES) | IC50 at 72 h [6] | IC50 at 72 h [7] | viability at 0.1 µM [8] | Activity [9] | Activity [10] | Activity [11]
1 | 2.52 µM | 1.26 µM | 7.39 µM | > 10 µM | > 10 µM | C=CC(=O)Nc1cccc(CC(=O)Nc2ccc(-c3cc(C)nc4noc(N)c34)cc2)c1 | > 10 µM | > 10 µM |  |  |  | 
2 | 7.42 µM | 1.34 µM | > 10 µM | > 10 µM | > 10 µM | C=CC(=O)Nc1ccc(CCC(=O)Nc2ccc(-c3cc(C)nc4noc(N)c34)cc2)cc1 | > 10 µM | > 10 µM |  |  |  | 
3 | 0.0046 µM | 0.00089 µM | > 10 µM | > 10 µM | 7.31 µM | Cc1cc(-c2ccc(NC(=O)Nc3ccc(Cl)c(C(F)(F)F)c3)cc2)c2c(N)onc2n1 | > 10 µM | 1.73 µM |  |  |  | 
4 | > 10 µM | 3.33 µM | 0.448 µM | 2.27 µM | > 10 µM | C=CC(=O)Nc1ccc(C(=O)Nc2ccc(-c3cc(C)nc4noc(N)c34)cc2)cc1C | 3.23 µM | 2.77 µM |  |  |  | 
5 | > 10 µM | > 10 µM | > 10 µM | > 10 µM | > 10 µM | C=CC(=O)Nc1ccc(C(=O)Nc2ccc(-c3cc(C)nc4noc(N)c34)cc2)cc1F | > 10 µM | > 10 µM |  |  |  | 
6 | 7.35 µM | 1.22 µM | 0.601 µM | 2.68 µM | > 10 µM | C=CC(=O)Nc1ccc(C(=O)Nc2ccc(-c3cc(C)nc4noc(N)c34)cc2)cc1Br | > 10 µM | > 10 µM |  |  |  | 
7 | > 10 µM | 2.55 µM | > 10 µM | > 10 µM | > 10 µM | C=CS(=O)(=O)Nc1ccc(C(=O)Nc2ccc(-c3cc(C)nc4noc(N)c34)cc2)cc1 | > 10 µM | > 10 µM |  |  |  | 
8 | 6.9 µM | 9.18 µM | 3.68 µM | > 10 µM | > 10 µM | C=CC(=O)Nc1ccc(C(=O)Nc2ccc(-c3cc(C)nc4noc(N)c34)cc2)c(C(F)(F)F)c1 | > 10 µM | > 10 µM |  |  |  | 
9 | 6.23 µM | 2.17 µM | 8.53 µM | > 10 µM | > 10 µM | C=CC(=O)Nc1ccc(CC(=O)Nc2ccc(-c3cc(C)nc4noc(N)c34)cc2)cc1 | > 10 µM | > 10 µM |  |  |  | 
10 | > 10 µM | 4.79 µM | > 10 µM | > 10 µM | > 10 µM | C=CC(=O)Nc1ccc(C(=O)Nc2ccc(-c3cc(C)nc4noc(N)c34)cc2)cc1OC | > 10 µM | > 10 µM |  |  |  | 
11 | 0.703 µM | 0.348 µM | 3.95 µM | 7.62 µM | > 10 µM | C=CC(=O)Nc1cccc(C(=O)Nc2ccc(-c3cc(C)nc4noc(N)c34)cc2)c1 | > 10 µM | > 10 µM |  |  |  | 
12 | 2.27 µM | 1.04 µM | > 10 µM | > 10 µM | > 10 µM | C=CC(=O)Nc1cccc(NC(=O)Nc2ccc(-c3cc(C)nc4noc(N)c34)cc2)c1 | > 10 µM | > 10 µM |  |  |  | 
13 | 0.019 µM | 0.0034 µM | 7.88 µM | 4 µM | 8.34 µM | Cc1ccc(F)c(NC(=O)Nc2ccc(-c3cccc4[nH]nc(N)c34)cc2)c1 [LINIFANIB] | 4.92 µM | 6.96 µM | 33.4% | 0.55% | 50.7% | 15.38%
14 | 3.76 µM | 0.675 µM | 0.307 µM | 2.61 µM | 5.54 µM | C=CC(=O)Nc1ccc(C(=O)Nc2ccc(-c3cc(C)nc4noc(N)c34)cc2)cc1Cl | 2.65 µM | 7.52 µM |  |  |  | 
15 | 4.78 µM | 1.59 µM | 4.4 µM | > 10 µM | > 10 µM | C=CC(=O)Nc1ccc(C(=O)Nc2ccc(-c3cc(C)nc4noc(N)c34)cc2)cc1 | > 10 µM | > 10 µM |  |  |  | 
16 | > 10 µM | > 10 µM | > 10 µM | > 10 µM | > 10 µM | C=CC(=O)N1CCC(C(=O)Nc2ccc(-c3cc(C)nc4noc(N)c34)cc2)CC1 | > 10 µM | > 10 µM |  |  |  | 
